Assay results as given in the NIST ThermoML archive (doi:10.1016/j.fluid.2014.04.038).
“And” between values parts separate entries of the source, which are not always exact repeats. Equal entries are not always repeated. Numbers after ± are expanded uncertainties.

Settings: Hot wire method

N#N [nitrogen]
Gas
Settings | thermal conductivity
321.58 K, 2776.2 kPa | 0.0278 ± 0.0017 W/m/K
321.95 K, 2778.7 kPa | 0.02777 ± 0.0017 W/m/K
321.99 K, 2778.7 kPa | 0.02793 ± 0.0017 W/m/K
322.25 K, 2776.2 kPa | 0.02762 ± 0.0017 W/m/K
322.29 K, 2776.2 kPa | 0.02772 ± 0.0017 W/m/K
322.61 K, 2776.2 kPa | 0.02762 ± 0.0017 W/m/K
323.16 K, 1008.8 kPa | 0.02726 ± 0.0017 W/m/K
323.18 K, 1008.8 kPa | 0.02729 ± 0.0017 W/m/K
324.06 K, 1008.8 kPa | 0.02748 ± 0.0017 W/m/K
324.12 K, 1008.8 kPa | 0.02747 ± 0.0017 W/m/K
325.1 K, 1008.8 kPa | 0.0277 ± 0.0017 W/m/K and 0.02772 ± 0.0017 W/m/K
325.44 K, 574.1 kPa | 0.02822 ± 0.0017 W/m/K
326.18 K, 2705.7 kPa | 0.02794 ± 0.0017 W/m/K
326.24 K, 2705.7 kPa | 0.02859 ± 0.0018 W/m/K
326.43 K, 4299.5 kPa | 0.02906 ± 0.0018 W/m/K
326.51 K, 4299.5 kPa | 0.02914 ± 0.0018 W/m/K
326.67 K, 3835.8 kPa | 0.02909 ± 0.0018 W/m/K and 0.02897 ± 0.0018 W/m/K
326.72 K, 2705.7 kPa | 0.02848 ± 0.0018 W/m/K
326.75 K, 2705.7 kPa | 0.02853 ± 0.0018 W/m/K
327.32 K, 1657.7 kPa | 0.02798 ± 0.0017 W/m/K
327.57 K, 1657.7 kPa | 0.02789 ± 0.0017 W/m/K
327.66 K, 4299.5 kPa | 0.0294 ± 0.0018 W/m/K
327.7 K, 4299.5 kPa | 0.02966 ± 0.0018 W/m/K
327.84 K, 1209.3 kPa | 0.02782 ± 0.0017 W/m/K
327.85 K, 1209.3 kPa | 0.02748 ± 0.0017 W/m/K
327.86 K, 3835.8 kPa | 0.0294 ± 0.0018 W/m/K and 0.02906 ± 0.0018 W/m/K
328.83 K, 1657.7 kPa | 0.02814 ± 0.0017 W/m/K
328.85 K, 1657.7 kPa | 0.02817 ± 0.0017 W/m/K
329.15 K, 1209.3 kPa | 0.02785 ± 0.0017 W/m/K
329.17 K, 1209.3 kPa | 0.02784 ± 0.0017 W/m/K
330.94 K, 2682.6 kPa | 0.02851 ± 0.0018 W/m/K
330.96 K, 2682.6 kPa | 0.0287 ± 0.0018 W/m/K
332.04 K, 2682.6 kPa | 0.02834 ± 0.0017 W/m/K
332.12 K, 2682.6 kPa | 0.02902 ± 0.0018 W/m/K
335.72 K, 2657.4 kPa | 0.02849 ± 0.0018 W/m/K
335.73 K, 2657.4 kPa | 0.02905 ± 0.0018 W/m/K
336.01 K, 4212.3 kPa | 0.02961 ± 0.0018 W/m/K
336.02 K, 4212.3 kPa | 0.02949 ± 0.0018 W/m/K
336.33 K, 2657.4 kPa | 0.02874 ± 0.0018 W/m/K
336.36 K, 2657.4 kPa | 0.02885 ± 0.0018 W/m/K
337.13 K, 4212.3 kPa | 0.03001 ± 0.0018 W/m/K and 0.0297 ± 0.0018 W/m/K
340.86 K, 2579.4 kPa | 0.02926 ± 0.0018 W/m/K
340.87 K, 2579.4 kPa | 0.02913 ± 0.0018 W/m/K
341.16 K, 2579.4 kPa | 0.02959 ± 0.0018 W/m/K
341.21 K, 2579.4 kPa | 0.02922 ± 0.0018 W/m/K

Cc1ccccc1 [toluene]
Liquid
Settings | thermal conductivity [W/m/K]
318.8 K | 0.1241 ± 0.005
328.48 K | 0.1218 ± 0.0049
333.34 K | 0.1209 ± 0.0049
338.23 K | 0.1195 ± 0.0048
341.16 K | 0.1201 ± 0.0048
343.09 K | 0.1176 ± 0.0047
346.01 K | 0.116 ± 0.0047
350.87 K | 0.1149 ± 0.0046
355.71 K | 0.1151 ± 0.0046
365.42 K | 0.1116 ± 0.0045
370.29 K | 0.1112 ± 0.0045
